These results are taken from US5166154A, “Imidazo[1,2-a]piperazines” (Boehringer Ingelheim Pharmaceuticals, Inc., priority 1991, dated 1992).

In this test the target is T1, Human sputum elastase (HSE) (Homo sapiens, UniProt P08246).
T1 construct: purchased Elastin Products Co., Pacific, Mo; host or cells: human sputum
T1 sequence (P08246 30-247 limits assumed): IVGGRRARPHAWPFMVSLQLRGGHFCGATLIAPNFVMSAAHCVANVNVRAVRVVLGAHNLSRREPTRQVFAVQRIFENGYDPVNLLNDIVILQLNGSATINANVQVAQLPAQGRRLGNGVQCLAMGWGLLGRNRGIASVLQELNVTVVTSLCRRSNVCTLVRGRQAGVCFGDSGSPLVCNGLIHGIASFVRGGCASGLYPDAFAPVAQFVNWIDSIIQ
In words: In vitro elastase inhibition, hydrolysis of MeO-Suc-Ala-Ala-Pro-Val-pNA (release of pNA, 405 nm). The class given is biochemical. The note with it: 5 ug/mL, 0.5 mM substrate, pH 7.5, 15 min pre-incubation. From the text: The method of K. Nakajima et al., Journal of Biological Chemistry, 254: 4027-4032 (1979) was adapted to a microtiter format. The in vitro assay is based upon the hydrolysis of the commercially available (Sigma Chemical Company, St. Louis, Mo.) substrate methoxy O-succinyl-L-alanyl-L-alanyl-L-prolyl-L-valine para-nitroanilide (MeO-Suc-Ala-Ala-Pro-Val-pNA) and the release of para-nitroanilide (pNA), which absorbs at 405 nm.
a. Human sputum elastase (HSE) (Elastin Products Co., Pacific, Mo.) dissolved in 1 mg/mL in 0.05M sodium chloride and frozen (50 μL aliquots) at -20° C. until used.
b. Stock solution of MeO-succinyl-L-Alanyl-L-Alanyl-Pro-Val-pNA dissolved at 15 mM in dimethylsulfoxide (DMSO) and frozen (4 mL aliquots) at -20° C. until used.
c. Assay buffer: 0.1M Tris buffer, pH 7.5 containing 0.5M sodium chloride.
Screening is performed in microtiter plates, using 0.5 mM substrate and monitored on a Microtiter Reader. Enzyme activity (+/- test compound) is determined as the rate of pNA release (linear regression analysis of slope). Inhibitory activity of the test compound is calculated relative to the uninhibited enzyme control, as follows: [formula]
A frozen aliquot of HSE is thawed and diluted with assay buffer to a stock concentration of 0.02 mg/mL (30×assay concentration). A frozen aliquot of the substrate stock solution is thawed and diluted to 0.5 mM with the assay buffer (final DMSO concentration is […]). 10 μl of the test compound stock solution (or assay buffer) and 10 μl of the HSE stock solutions are pipetted into each microtiter well, in duplicate. The plate is mixed well, and pre-incubated at room temperature for 15 minutes. A 300 μl substrate solution is then added to each well and the OD405 is followed for approximately 30 minutes.
Further, it is known to those skilled in the art that the biological activities of pharmaceutical agents may be diminished in vitro when human serum albumin (HSA) is added. This is due to the probable binding of compounds to protein. In the case of the present invention, however, the compounds of the present invention are just as active in vitro without or with 0.5% HSA and thus would be expected not to bind to plasma in an in vivo situation or in a diagnostic setting.

Setting [1] is: 0% HSA (human serum albumin), read-out: % INHIBITION (5 ug/mL), 0% HSA.
[2] abbreviates: 0.5% HSA (human serum albumin), read-out: % INHIBITION (5 ug/mL), 0.5% HSA.

Where two headings read alike, the source gives them in different places.

Consider `CC(C)C1N=C2CN(C3Cc4ccccc4C3)C(=O)[C@H](C(C)C)N2C1(O)C(F)(F)F` (stereo partly drawn), for which the inhibition at 5 µg/mL was found to be 86% under setting [1] and 84.5% under setting [2].

Regarding `CC(C)C1N=C2CN(C3CCCCCCC3)C(=O)[C@H](C(C)C)N2C1(O)C(F)(F)F` (stereo partly drawn), the inhibition at 5 µg/mL by setting is: under setting [1], 39.2%; under setting [2], 28%.

Consider `COc1ccc(CCN2CC3=NC(C(C)C)C(O)(C(F)(F)F)N3[C@@H](C(C)C)C2=O)cc1OC` (stereo partly drawn), for which the inhibition at 5 µg/mL runs as follows: under setting [1], 47.5%; under setting [2], 58.6%.
